In patent US10750742B2, “Pesticidally active pyrazole derivatives” (SYNGENTA PARTICIPATIONS AG, priority 2015, dated 2020):
Read-outs that look alike come from different tables or passages of the source.

Assays:
Format in all cases: in vivo
Spodoptera littoralis = Spodoptera littoralis (Egyptian cotton leaf worm), cotton leaf disc spray test; conditions: foliar, 72 h, read-out: control (at least one of mortality, anti-feedant effect, growth inhibition); for percent control (mortality, anti-feedant effect or growth inhibition) at 200 ppm: application rate 200 ppm, L1 larvae, 3 days after infestation
Method: Spodoptera littoralis (Egyptian Cotton Leaf Worm)
Cotton leaf discs were placed on agar in 24-well microtiter plates and sprayed with aqueous test solutions prepared from 10′000 ppm DMSO stock solutions. After drying the leaf discs were infested with five L1 larvae. The samples were assessed for mortality, anti-feedant effect, and growth inhibition in comparison to untreated samples 3 days after infestation. Control of Spodoptera littoralis by a test sample is when at least one of mortality, anti-feedant effect, and growth inhibition is higher than the untreated sample.

Diabrotica balteata = Diabrotica balteata (corn root worm), maize sprout test; conditions: 96 h, read-out: control (mortality and growth inhibition)
Method: Diabrotica balteata, (Corn Root Worm)
Maize sprouts, placed on an agar layer in 24-well microtiter plates were treated with aqueous test solutions prepared from 10′000 ppm DMSO stock solutions by spraying. After drying, the plates were infested with L2 larvae (6 to 10 per well). The samples were assessed for mortality and growth inhibition in comparison to untreated samples 4 days after infestation.

Plutella xylostella = Plutella xylostella (diamond back moth), artificial diet test; conditions: 120 h, read-out: control (mortality and growth inhibition)
Method: Plutella xylostella (Diamond Back Moth):
24-well microtiter plates with artificial diet were treated with aqueous test solutions prepared from 10′000 ppm DMSO stock solutions by pipetting. After drying, the plates were infested with L2 larvae (10 to 15 per well). The samples were assessed for mortality and growth inhibition in comparison to untreated samples 5 days after infestation.

Thrips tabaci = Thrips tabaci (onion thrips), sunflower leaf disc test; conditions: foliar, 144 h, read-out: control (mortality)
Method: Thrips tabaci (Onion Thrips):
Sunflower leaf discs were placed on agar in 24-well microtiter plates and sprayed with aqueous test solutions prepared from 10′000 ppm DMSO stock solutions. After drying the leaf discs were infested with a thrips population of mixed ages. The samples were assessed for mortality 6 days after infestation.

Tetranychus urticae = Tetranychus urticae (two-spotted spider mite), bean leaf disc test; conditions: foliar, 192 h, read-out: control (mortality on mixed population, mobile stages)
Method: Tetranychus urticae (Two-Spotted Spider Mite):
Bean leaf discs on agar in 24-well microtiter plates were sprayed with aqueous test solutions prepared from 10′000 ppm DMSO stock solutions. After drying the leaf discs were infested with a mite population of mixed ages. The samples were assessed for mortality on mixed population (mobile stages) 8 days after infestation.

Euschistus heros = Euschistus heros (neotropical brown stink bug), soybean leaf test; conditions: 120 h, read-out: effect in at least one of the two categories (mortality or growth inhibition); for percent effect (mortality or growth inhibition) at 200 ppm: application rate 200 ppm, N2 nymphs, 5 days after infestation
Method: Euschistus heros (Neotropical Brown Stink Bug):
Soybean leaves on agar in 24-well microtiter plates were sprayed with aqueous test solutions prepared from 10′000 ppm DMSO stock solutions. After drying the leaves were infested with N2 nymphs. The samples were assessed for mortality and growth inhibition in comparison to untreated samples 5 days after infestation.

Myzus persicae = Myzus persicae (green peach aphid), sucrose solution / Parafilm test; conditions: 120 h
Source text: Myzus persicae (Green Peach Aphid):
Test compounds were applied by pipette into 24 well plates and mixed with Sucrose solution. Application rate: 12.5 ppm. The plates were closed with a stretched parafilm. A plastic stencil with 24 holes is placed onto the plate and infested pea seedlings were placed directly on the Parafilm. The infested plate is closed with a gel blotting paper and another plastic stencil and then turned upside down. 5 days after infestation the samples were checked on mortality.

[1] = application rate 200 ppm, L2 larvae, 4 days after infestation
[2] = application rate 200 ppm, L2 larvae, 5 days after infestation
[3] = application rate 200 ppm, mixed ages, 6 days after infestation
[4] = application rate 200 ppm, 8 days after infestation
[5] = test rate of 12 ppm, sucrose solution, 5 days after infestation, read-out: mortality

Cn1nc(OC(F)(F)C(F)C(F)(F)F)c(C(F)(F)F)c1-n1cc(-c2ccc(Cl)c(C(=O)N(/C(F)=C(\F)C(F)(F)F)C3(C#N)CC3)c2)cn1 (stereo not shown) [compound 7]
≥ 80%: percent control (mortality, anti-feedant effect or growth inhibition) at 200 ppm (Spodoptera littoralis) | mortality at 200 ppm (Diabrotica balteata; [1]) | mortality at 200 ppm (Plutella xylostella; [2]) | mortality at 200 ppm (Thrips tabaci; [3]) | mortality at 200 ppm (Tetranychus urticae; [4])

CCNC(=O)c1cc(-c2cnn(-c3c(C(F)(F)F)c(OC(F)(F)C(F)C(F)(F)F)nn3C)c2)ccc1Cl (stereo not shown) [compound 9]
≥ 80%: percent effect (mortality or growth inhibition) at 200 ppm (Euschistus heros) | percent control (mortality, anti-feedant effect or growth inhibition) at 200 ppm (Spodoptera littoralis) | mortality at 12 ppm (Myzus persicae; [5]) | mortality at 200 ppm (Diabrotica balteata; [1]) | mortality at 200 ppm (Plutella xylostella; [2]) | mortality at 200 ppm (Thrips tabaci; [3]) | mortality at 200 ppm (Tetranychus urticae; [4])

Cn1nc(OC(F)(F)C(F)C(F)(F)F)c(C(F)(F)F)c1-n1cc(-c2ccc(Cl)c(C(=O)NCC#N)c2)cn1 (stereo not shown) [compound 10]
≥ 80%: percent control (mortality, anti-feedant effect or growth inhibition) at 200 ppm (Spodoptera littoralis) | mortality at 12 ppm (Myzus persicae; [5]) | mortality at 200 ppm (Diabrotica balteata; [1]) | mortality at 200 ppm (Plutella xylostella; [2]) | mortality at 200 ppm (Thrips tabaci; [3]) | mortality at 200 ppm (Tetranychus urticae; [4])

Cn1nc(OC(F)(F)C(F)=C(C(F)(F)F)C(F)(F)F)c(C(F)(F)F)c1-n1cc(-c2ccc(Cl)c(C(=O)NC3(C#N)CC3)c2)cn1 [compound 14]
≥ 80%: mortality at 200 ppm (Tetranychus urticae; [4])

Cn1nc(OS(=O)(=O)C(F)(F)F)c(C(F)(F)F)c1-n1cc(-c2ccc(Cl)c(C(=O)NC3(C#N)CC3)c2)cn1 [compound 16]
≥ 80%: percent effect (mortality or growth inhibition) at 200 ppm (Euschistus heros) | percent control (mortality, anti-feedant effect or growth inhibition) at 200 ppm (Spodoptera littoralis) | mortality at 200 ppm (Diabrotica balteata; [1]) | mortality at 200 ppm (Plutella xylostella; [2]) | mortality at 200 ppm (Thrips tabaci; [3]) | mortality at 200 ppm (Tetranychus urticae; [4])

Cn1nc(OCCCCC(F)=C(F)F)c(C(F)(F)F)c1-n1cc(-c2ccc(Cl)c(C(=O)NC3(C#N)CC3)c2)cn1 [compound 21]
≥ 80%: percent effect (mortality or growth inhibition) at 200 ppm (Euschistus heros) | mortality at 200 ppm (Tetranychus urticae; [4])

Cn1nc(OCC(F)(F)C(F)(F)C(F)(F)C(F)(F)C(F)(F)C(F)(F)C(F)(F)F)c(C(F)(F)F)c1-n1cc(-c2ccc(Cl)c(C(=O)NC3(C#N)CC3)c2)cn1 [compound 22]
≥ 80%: mortality at 200 ppm (Spodoptera littoralis) | mortality at 200 ppm (Diabrotica balteata) | mortality at 200 ppm (Plutella xylostella)

Cn1nc(OCCOC(F)(F)F)c(C(F)(F)F)c1-n1cc(-c2ccc(Cl)c(C(=O)NC3(C#N)CC3)c2)cn1 [compound 28]
≥ 80%: percent effect (mortality or growth inhibition) at 200 ppm (Euschistus heros) | mortality at 12 ppm (Myzus persicae; [5])

Cn1nc(OCCCCC(F)=C(F)F)c(C(F)(F)F)c1-n1cc(-c2ccc(Cl)c(C(=O)NC3CC3)c2)cn1 [compound 29]
≥ 80%: mortality at 200 ppm (Diabrotica balteata; [1])

Cn1nc(OCC(F)(F)C(F)(F)C(F)(F)C(F)(F)C(F)(F)C(F)(F)C(F)(F)F)c(C(F)(F)F)c1-n1cc(-c2ccc(Cl)c(C(=O)NC3CC3)c2)cn1 [compound 31]
≥ 80%: mortality at 200 ppm (Plutella xylostella)

Cn1nc(OS(=O)(=O)C(F)(F)C(F)(F)C(F)(F)C(F)(F)F)c(C(F)(F)F)c1-n1cc(-c2ccc(Cl)c(C(=O)NC3(C#N)CC3)c2)cn1 [compound 36]
≥ 80%: percent control (mortality or growth inhibition) at 200 ppm (Euschistus heros) | mortality at 12 ppm (Myzus persicae) | mortality at 200 ppm (Diabrotica balteata) | mortality at 200 ppm (Plutella xylostella) | mortality at 200 ppm (Thrips tabaci)

Cn1nc(OS(=O)(=O)C(F)(F)C(F)(F)C(F)(F)C(F)(F)F)c(C(F)(F)F)c1-n1cc(-c2ccc(Cl)c(C(=O)NC3CC3)c2)cn1 [compound 37]
≥ 80%: percent control (mortality or growth inhibition) at 200 ppm (Euschistus heros) | mortality at 12 ppm (Myzus persicae) | mortality at 200 ppm (Diabrotica balteata) | mortality at 200 ppm (Plutella xylostella) | mortality at 200 ppm (Thrips tabaci)

Cn1nc(OC(F)(F)C(F)(F)C(F)(F)C(F)(F)C(F)(F)C(F)(F)F)c(C(F)(F)F)c1-n1cc(-c2ccc(Cl)c(C(=O)NC3(C#N)CC3)c2)cn1 [compound 38]
≥ 80%: percent control (mortality or growth inhibition) at 200 ppm (Euschistus heros) | mortality at 200 ppm (Spodoptera littoralis) | mortality at 200 ppm (Diabrotica balteata) | mortality at 200 ppm (Plutella xylostella) | mortality at 200 ppm (Thrips tabaci)

Cn1nc(OC(F)(F)C(F)(F)C(F)(F)C(F)(F)C(F)(F)C(F)(F)F)c(C(F)(F)F)c1-n1cc(-c2ccc(Cl)c(C(=O)NC3CC3)c2)cn1 [compound 39]
≥ 80%: percent control (mortality or growth inhibition) at 200 ppm (Euschistus heros) | mortality at 200 ppm (Spodoptera littoralis) | mortality at 200 ppm (Diabrotica balteata) | mortality at 200 ppm (Plutella xylostella) | mortality at 200 ppm (Thrips tabaci) | mortality at 200 ppm (Tetranychus urticae)

Cn1nc(O/C(=C(/F)C(F)(F)F)C(F)(F)F)c(C(F)(F)F)c1-n1cc(-c2ccc(Cl)c(C(=O)NC3(C#N)CC3)c2)cn1 [compound 42]
≥ 80%: percent effect (mortality or growth inhibition) at 200 ppm (Euschistus heros) | percent control (mortality, anti-feedant effect or growth inhibition) at 200 ppm (Spodoptera littoralis) | mortality at 200 ppm (Diabrotica balteata; [1]) | mortality at 200 ppm (Plutella xylostella; [2])

Cn1nc(OCCC(F)=C(F)F)c(C(F)(F)F)c1-n1cc(-c2ccc(Cl)c(C(=O)NC3(C#N)CC3)c2)cn1 [compound 46]
≥ 80%: percent control (mortality, anti-feedant effect or growth inhibition) at 200 ppm (Spodoptera littoralis) | mortality at 200 ppm (Plutella xylostella; [2]) | mortality at 200 ppm (Thrips tabaci; [3])

Cn1nc(O/C(=C\F)C(F)(F)F)c(C(F)(F)F)c1-n1cc(-c2ccc(Cl)c(C(=O)NC3(C#N)CC3)c2)cn1 [compound 49]
≥ 80%: percent effect (mortality or growth inhibition) at 200 ppm (Euschistus heros) | percent control (mortality, anti-feedant effect or growth inhibition) at 200 ppm (Spodoptera littoralis) | mortality at 12 ppm (Myzus persicae; [5]) | mortality at 200 ppm (Tetranychus urticae; [4])

Cn1nc(OC(F)=C(F)C(F)(F)F)c(C(F)(F)F)c1-n1cc(-c2ccc(Cl)c(C(=O)NC3(C#N)CC3)c2)cn1 [compound 52]
≥ 80%: percent effect (mortality or growth inhibition) at 200 ppm (Euschistus heros) | mortality at 12 ppm (Myzus persicae; [5]) | mortality at 200 ppm (Thrips tabaci; [3]) | mortality at 200 ppm (Tetranychus urticae; [4])

Cn1nc(SCCC(F)(F)C(F)(F)C(F)(F)C(F)(F)C(F)(F)C(F)(F)F)c(Br)c1-n1cc(-c2ccc(Cl)c(C(=O)NC3CC3)c2)cn1 [compound 54]
≥ 80%: mortality at 200 ppm (Spodoptera littoralis) | mortality at 200 ppm (Plutella xylostella)

COc1nn(C)c(-n2cc(-c3ccc(Cl)c(C(=O)N(C)C4(C#N)CC4)c3)cn2)c1C(F)(F)F [compound 56]
≥ 80%: mortality at 12 ppm (Myzus persicae; [5]) | mortality at 200 ppm (Diabrotica balteata; [1]) | mortality at 200 ppm (Plutella xylostella; [2])

Cn1nc(SCC(F)(F)C(F)F)c(Br)c1-n1cc(-c2ccc(Cl)c(C(=O)NC3CC3)c2)cn1 [compound 57]
≥ 80%: percent control (mortality, anti-feedant effect or growth inhibition) at 200 ppm (Spodoptera littoralis)

Cn1nc(OC(Cl)(Cl)C(Cl)=C(Cl)Cl)c(C(F)(F)F)c1-n1cc(-c2ccc(Cl)c(C(=O)NC3CC3)c2)cn1 [compound 67]
≥ 80%: mortality at 200 ppm (Diabrotica balteata; [1]) | mortality at 200 ppm (Thrips tabaci; [3])

Cn1nc(OC(F)(F)C(F)C(F)(F)F)c(C(F)(F)F)c1-n1cc(-c2cccc(C(=O)NC3CC3)c2F)cn1 (stereo not shown) [compound 68]
≥ 80%: percent control (mortality, anti-feedant effect or growth inhibition) at 200 ppm (Spodoptera littoralis) | mortality at 200 ppm (Diabrotica balteata; [1]) | mortality at 200 ppm (Thrips tabaci; [3]) | mortality at 200 ppm (Tetranychus urticae; [4])
